Results published in publication PMC6858497 (The Journal of physiology, 2019).
Where “and” joins values, the source holds several entries; their conditions need not be identical. Equal entries are not always repeated.

What was measured:
GluN1–1a/2D = GluN1–1a/2D (Rattus norvegicus, UniProt P35439+Q62645); assay: Two-electrode voltage-clamp recordings, Xenopus oocytes; type: cell-based; settings: for nH (Hill coefficient): inhibition
GluN1–1a/2B = GluN1–1a/2B (Rattus norvegicus, UniProt P35439+Q00960); assay: as above; type: cell-based; settings: for nH (Hill coefficient): inhibition
GluN1–1a/2BC1/2DC2 = GluN1–1a/2BC1/2DC2 (Rattus norvegicus, UniProt P35439+Q00959+Q00960+Q62645, A876H/F846L/G856D/H848F/K857R/M851T/M860L/Q845K/R869K/V861L/V866F); assay: as above; type: cell-based; settings: for Relative Imin: fitted minimal response relative to control; for nH (Hill coefficient): inhibition
[1] = system: NMDAR-EPSCs in hippocampal interneurons (CA1 s.r./s.l.m.); assay: Whole-cell patch-clamp of NMDAR-EPSCs in acute hippocampal slices; type: cell-based, mouse; settings: for NMDAR-EPSC peak amplitude, % of baseline: 10 μM, +40 mV, P21–28 slices
[2] = system: NMDAR-EPSCs in hippocampal CA1 pyramidal cells; assay: as above; type: cell-based, mouse; settings: for NMDAR-EPSC peak amplitude, % of baseline: 10 μM, +40 mV, P21–28 slices; for effect on EPSC decay time: treatment versus baseline, paired t test, 10 μM (spermine 100 μM)
[3] = fitted minimal response relative to control, isoform 1a
[4] = isoform 1a, 300 μM glutamate plus 100 μM glycine
[5] = channel block, −20 mV, + 1 mM Mg2+
[6] = channel block, −20 mV, control (absence of Mg2+)
[7] = channel block, −40 mV, + 1 mM Mg2+
[8] = channel block, −40 mV, control (absence of Mg2+)
[9] = channel block, −60 mV, + 1 mM Mg2+
[10] = channel block, −60 mV, control (absence of Mg2+)
[11] = Mg2+ block, holding potential −40 mV
[12] = Mg2+ block, holding potential −60 mV
[13] = Mg2+ block, holding potential −80 mV
[14] = Mg2+ block, holding potential −100 mV
[15] = Woodhull model, current-voltage relationship with 0.1 mM Mg2+
[16] = IC50, channel block, −20 mV, + 1 mM Mg2+
[17] = IC50, channel block, −20 mV, control (absence of Mg2+)
[18] = IC50, channel block, −40 mV, + 1 mM Mg2+
[19] = IC50, channel block, −40 mV, control (absence of Mg2+)
[20] = IC50, channel block, −60 mV, + 1 mM Mg2+
[21] = IC50, channel block, −60 mV, control (absence of Mg2+)

Chain of GluN1–1a/2B (Q00960 27-1482, other chains not shown): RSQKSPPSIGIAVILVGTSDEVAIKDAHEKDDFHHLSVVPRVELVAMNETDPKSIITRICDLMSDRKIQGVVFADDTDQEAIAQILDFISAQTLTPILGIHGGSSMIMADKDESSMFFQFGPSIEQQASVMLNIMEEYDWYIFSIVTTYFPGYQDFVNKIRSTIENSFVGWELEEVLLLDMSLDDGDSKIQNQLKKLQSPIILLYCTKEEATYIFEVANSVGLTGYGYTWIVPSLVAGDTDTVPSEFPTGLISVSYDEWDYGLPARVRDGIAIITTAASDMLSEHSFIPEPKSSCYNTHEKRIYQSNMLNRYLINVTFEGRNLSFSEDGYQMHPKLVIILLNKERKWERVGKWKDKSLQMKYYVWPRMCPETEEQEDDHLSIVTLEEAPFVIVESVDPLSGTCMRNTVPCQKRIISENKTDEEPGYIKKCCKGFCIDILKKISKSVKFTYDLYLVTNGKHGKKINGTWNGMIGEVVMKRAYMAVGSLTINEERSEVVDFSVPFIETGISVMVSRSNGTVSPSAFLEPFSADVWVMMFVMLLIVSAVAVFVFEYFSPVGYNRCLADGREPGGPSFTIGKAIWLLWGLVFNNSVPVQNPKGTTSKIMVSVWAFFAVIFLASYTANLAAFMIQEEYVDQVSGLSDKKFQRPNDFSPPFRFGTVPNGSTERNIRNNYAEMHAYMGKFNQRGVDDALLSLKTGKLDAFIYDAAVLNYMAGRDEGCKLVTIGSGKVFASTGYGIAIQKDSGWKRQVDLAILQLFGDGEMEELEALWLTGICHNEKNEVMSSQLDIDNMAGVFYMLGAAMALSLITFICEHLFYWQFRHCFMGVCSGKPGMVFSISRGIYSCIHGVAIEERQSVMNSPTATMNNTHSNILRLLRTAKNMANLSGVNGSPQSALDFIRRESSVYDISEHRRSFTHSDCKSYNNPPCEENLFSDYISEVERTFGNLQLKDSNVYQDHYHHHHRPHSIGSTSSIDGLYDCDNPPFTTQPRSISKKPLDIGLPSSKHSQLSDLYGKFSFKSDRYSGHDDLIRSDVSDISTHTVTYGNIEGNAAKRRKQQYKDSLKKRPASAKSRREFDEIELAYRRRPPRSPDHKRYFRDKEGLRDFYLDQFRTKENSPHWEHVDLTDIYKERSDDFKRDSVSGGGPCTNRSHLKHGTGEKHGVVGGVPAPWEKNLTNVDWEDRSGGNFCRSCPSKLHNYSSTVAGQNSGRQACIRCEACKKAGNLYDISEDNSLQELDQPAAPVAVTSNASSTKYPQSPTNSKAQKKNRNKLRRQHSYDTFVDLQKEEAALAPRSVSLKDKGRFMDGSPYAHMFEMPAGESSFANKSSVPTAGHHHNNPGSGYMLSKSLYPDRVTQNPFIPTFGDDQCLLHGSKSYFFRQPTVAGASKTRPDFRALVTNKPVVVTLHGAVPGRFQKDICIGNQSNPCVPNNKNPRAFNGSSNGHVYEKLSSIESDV
Chain of GluN1–1a/2D (Q62645 28-1323, other chains not shown): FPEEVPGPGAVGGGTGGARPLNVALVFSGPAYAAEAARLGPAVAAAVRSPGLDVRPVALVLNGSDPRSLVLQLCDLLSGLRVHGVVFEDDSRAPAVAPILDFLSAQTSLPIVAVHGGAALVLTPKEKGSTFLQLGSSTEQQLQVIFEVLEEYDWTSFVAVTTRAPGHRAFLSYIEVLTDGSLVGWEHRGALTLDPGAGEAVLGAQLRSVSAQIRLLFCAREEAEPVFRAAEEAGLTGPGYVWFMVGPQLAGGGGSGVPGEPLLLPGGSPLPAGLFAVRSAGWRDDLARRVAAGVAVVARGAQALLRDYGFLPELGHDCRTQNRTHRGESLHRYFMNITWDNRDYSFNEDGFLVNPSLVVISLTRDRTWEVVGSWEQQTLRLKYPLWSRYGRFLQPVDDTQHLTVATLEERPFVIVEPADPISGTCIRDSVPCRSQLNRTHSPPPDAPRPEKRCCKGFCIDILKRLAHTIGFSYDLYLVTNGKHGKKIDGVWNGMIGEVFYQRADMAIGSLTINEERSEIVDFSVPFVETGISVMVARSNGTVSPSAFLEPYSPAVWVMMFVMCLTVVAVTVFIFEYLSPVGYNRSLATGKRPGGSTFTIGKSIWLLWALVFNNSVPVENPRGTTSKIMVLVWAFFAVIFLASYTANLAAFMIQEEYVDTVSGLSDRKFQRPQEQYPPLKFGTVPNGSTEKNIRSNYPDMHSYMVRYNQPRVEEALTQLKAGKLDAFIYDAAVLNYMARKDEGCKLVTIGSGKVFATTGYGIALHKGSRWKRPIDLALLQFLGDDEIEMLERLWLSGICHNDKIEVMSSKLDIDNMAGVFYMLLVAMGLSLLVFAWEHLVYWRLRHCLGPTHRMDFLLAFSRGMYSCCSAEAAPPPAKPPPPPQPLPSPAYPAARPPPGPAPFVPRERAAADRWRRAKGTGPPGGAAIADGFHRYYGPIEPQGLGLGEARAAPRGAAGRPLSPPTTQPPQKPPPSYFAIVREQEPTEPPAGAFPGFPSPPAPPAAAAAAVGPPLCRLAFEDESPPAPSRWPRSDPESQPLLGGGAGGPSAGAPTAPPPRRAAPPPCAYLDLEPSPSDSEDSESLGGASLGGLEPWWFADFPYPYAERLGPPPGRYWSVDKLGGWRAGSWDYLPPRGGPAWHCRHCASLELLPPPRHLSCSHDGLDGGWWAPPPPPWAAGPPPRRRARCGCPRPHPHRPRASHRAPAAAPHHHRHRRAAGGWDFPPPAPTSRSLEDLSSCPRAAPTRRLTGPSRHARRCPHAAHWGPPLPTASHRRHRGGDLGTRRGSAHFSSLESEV

Cc1ccc2[nH]c(=O)c(C3=NN(C(=O)CCC(=O)O)C(c4ccc(Br)cc4)C3)c(-c3ccccc3)c2c1 (centres unmarked) [DQP-1105]
Relative Imin (GluN1–1a/2D; [3]): −3 ± 1% | nH (Hill coefficient) (GluN1–1a/2D; isoform 1a): 1.0 | maximal inhibition (GluN1–1a/2D; isoform 1a): ~ 100% | IC50 (GluN1–1a/2D; [4]): 2.2 ± 0.1 µM | Relative Imin (GluN1–1a/2B; at 30 μM, isoform 1a): 58 ± 2% | Relative Imin (GluN1–1a/2BC1/2DC2; isoform 1a): −8 ± 2 % | nH (Hill coefficient) (GluN1–1a/2BC1/2DC2; isoform 1a): 0.8 | maximal inhibition (GluN1–1a/2BC1/2DC2; isoform 1a): ~ 100% | IC50 (GluN1–1a/2BC1/2DC2; [4]): 13 ± 1 µM

C[C@@H]([C@@H](O)c1ccc(O)cc1)N1CCC(O)(c2ccccc2)CC1 [CP-101,606]
NMDAR-EPSC peak amplitude, % of baseline [1]: 30 ± 3 % of baseline | effect on EPSC decay time ([1]; treatment versus baseline, paired t test, 10 μM (spermine 100 μM)): unchanged | nH (Hill coefficient) (GluN1–1a/2B; isoform 1a): 1.4 | maximal inhibition (GluN1–1a/2B; isoform 1a): ~ 95% | NMDAR-EPSC peak amplitude, % of baseline [2]: 50 ± 3 % of baseline | effect on EPSC decay time [2]: significantly accelerated | nH (Hill coefficient) (GluN1–1a/2BC1/2DC2; isoform 1a): 1.4 | maximal inhibition (GluN1–1a/2BC1/2DC2; isoform 1a): ~ 65%

CC12CC3CC(C)(C1)CC(N)(C3)C2 [memantine]
nH (GluN1–1a/2D; [5]): 1.0 | nH (GluN1–1a/2D; [6]): 1.1 | nH (GluN1–1a/2D; [7]): 1.0 | nH (GluN1–1a/2D; [8]): 1.1 | nH (GluN1–1a/2D; [9]): 1.0 | nH (GluN1–1a/2D; [10]): 1.1 | nH (GluN1–1a/2B; [5]): 1.1 | nH (GluN1–1a/2B; [6]): 0.9 | nH (GluN1–1a/2B; [7]): 1.0 | nH (GluN1–1a/2B; [8]): 1.0 | nH (GluN1–1a/2B; [9]): 1.1 | nH (GluN1–1a/2B; [10]): 1.0 | nH (GluN1–1a/2BC1/2DC2; [5]): 1.0 | nH (GluN1–1a/2BC1/2DC2; [6]): 1.1 | nH (GluN1–1a/2BC1/2DC2; [7]): 0.9 | nH (GluN1–1a/2BC1/2DC2; [8]): 1.0 | nH (GluN1–1a/2BC1/2DC2; [9]): 0.9 | nH (GluN1–1a/2BC1/2DC2; [10]): 1.0

COc1ccc2nc(/C=C/c3cccc([N+](=O)[O-])c3)n(-c3ccc(C(=O)O)cc3)c(=O)c2c1 [QNZ-46]
Relative Imin (GluN1–1a/2D; [3]): −3 ± 1% | nH (Hill coefficient) (GluN1–1a/2D; isoform 1a): 1.0 | maximal inhibition (GluN1–1a/2D; isoform 1a): ~ 100% | IC50 (GluN1–1a/2D; [4]): 2.7 ± 0.1 µM | Relative Imin (GluN1–1a/2B; at 30 μM, isoform 1a): 76 ± 1% | Relative Imin (GluN1–1a/2BC1/2DC2; isoform 1a): 4 ± 1 % | nH (Hill coefficient) (GluN1–1a/2BC1/2DC2; isoform 1a): 1.0 | maximal inhibition (GluN1–1a/2BC1/2DC2; isoform 1a): ~ 100% | IC50 (GluN1–1a/2BC1/2DC2; [4]): 10 ± 1 µM

Cc1nccn1Cc1cc(-c2ccc(F)c(C(F)F)c2)cnn1.Cl.Cl [EVT-101]
Relative Imin (GluN1–1a/2D; at 3 μM, isoform 1a): 92 ± 2% | Relative Imin (GluN1–1a/2B; [3]): 3 ± 1% | nH (Hill coefficient) (GluN1–1a/2B; isoform 1a): 1.0 | maximal inhibition (GluN1–1a/2B; isoform 1a): ~ 95% | IC50 (GluN1–1a/2B; [4]): 0.009 ± 0.001 µM | Relative Imin (GluN1–1a/2BC1/2DC2; isoform 1a): 37 ± 2 % | nH (Hill coefficient) (GluN1–1a/2BC1/2DC2; isoform 1a): 1.1 | maximal inhibition (GluN1–1a/2BC1/2DC2; isoform 1a): ~ 65% | IC50 (GluN1–1a/2BC1/2DC2; [4]): 0.012 ± 0.001 µM

[Mg+2] [Mg^2+]
IC50 (GluN1–1a/2D; [11]): 937 ± 85.9 µM | nH (GluN1–1a/2D; [11]): 1.0 | IC50 (GluN1–1a/2D; [12]): 254 µM | nH (GluN1–1a/2D; [12]): 1.0 | IC50 (GluN1–1a/2D; [13]): 72.5 ± 1.8 µM | nH (GluN1–1a/2D; [13]): 1.0 | IC50 (GluN1–1a/2D; [14]): 25.1 ± 0.4 µM | nH (GluN1–1a/2D; [14]): 1.0 | δ, fraction of the membrane electric field sensed by the blocking site (GluN1–1a/2D; Woodhull model, 0.1 mM Mg2+): 0.82 | K0.5(0 mV), Mg2+ concentration producing half-maximal block at 0 mV (GluN1–1a/2D; [15]): 11 mM | IC50 (GluN1–1a/2B; [11]): 161 ± 11.8 µM | nH (GluN1–1a/2B; [11]): 0.9 | IC50 (GluN1–1a/2B; [12]): 26 µM and 25.5 µM | nH (GluN1–1a/2B; [12]): 1.0 | IC50 (GluN1–1a/2B; [13]): 5.5 ± 0.4 µM | nH (GluN1–1a/2B; [13]): 1.0 | IC50 (GluN1–1a/2B; [14]): 1.6 ± 0.3 µM | nH (GluN1–1a/2B; [14]): 0.9 | δ, fraction of the membrane electric field sensed by the blocking site (GluN1–1a/2B; Woodhull model, 0.1 mM Mg2+): 1.08 | K0.5(0 mV), Mg2+ concentration producing half-maximal block at 0 mV (GluN1–1a/2B; [15]): 4.5 mM | IC50 (GluN1–1a/2BC1/2DC2; [11]): 518 ± 14.3 µM | nH (GluN1–1a/2BC1/2DC2; [11]): 0.8 | IC50 (GluN1–1a/2BC1/2DC2; [12]): 80 µM and 79.2 µM | nH (GluN1–1a/2BC1/2DC2; [12]): 0.9 | IC50 (GluN1–1a/2BC1/2DC2; [13]): 19.9 ± 0.8 µM | nH (GluN1–1a/2BC1/2DC2; [13]): 0.9 | IC50 (GluN1–1a/2BC1/2DC2; [14]): 6.8 ± 0.5 µM | nH (GluN1–1a/2BC1/2DC2; [14]): 0.9 | δ, fraction of the membrane electric field sensed by the blocking site (GluN1–1a/2BC1/2DC2; Woodhull model, 0.1 mM Mg2+): 0.95 | K0.5(0 mV), Mg2+ concentration producing half-maximal block at 0 mV (GluN1–1a/2BC1/2DC2; [15]): 6.6 mM

CNC1(c2ccccc2Cl)CCCCC1=O (centres unmarked) [ketamine]
IC50 (GluN1–1a/2D; [16]): 4.5 ± 0.5 µM | IC50 (GluN1–1a/2D; [17]): 3.8 ± 0.2 µM | IC50 (GluN1–1a/2D; [18]): 3.5 ± 0.5 µM | IC50 (GluN1–1a/2D; [19]): 2.4 ± 0.2 µM | IC50 (GluN1–1a/2D; [20]): 2.6 ± 0.4 µM | IC50 (GluN1–1a/2D; [21]): 1.3 ± 0.1 µM | nH (GluN1–1a/2D; [5]): 1.0 | nH (GluN1–1a/2D; [6]): 1.0 | nH (GluN1–1a/2D; [7]): 1.0 | nH (GluN1–1a/2D; [8]): 1.0 | nH (GluN1–1a/2D; [9]): 1.1 | nH (GluN1–1a/2D; [10]): 1.0 | IC50 (GluN1–1a/2B; [16]): 16.3 ± 1.9 µM | IC50 (GluN1–1a/2B; [17]): 4.2 ± 0.7 µM | IC50 (GluN1–1a/2B; [18]): 19.2 ± 2 µM | IC50 (GluN1–1a/2B; [19]): 2.1 ± 0.3 µM | IC50 (GluN1–1a/2B; [20]): 17 ± 2 µM | IC50 (GluN1–1a/2B; [21]): 1 ± 0.1 µM | nH (GluN1–1a/2B; [5]): 1.2 | nH (GluN1–1a/2B; [6]): 1.0 | nH (GluN1–1a/2B; [7]): 1.3 | nH (GluN1–1a/2B; [8]): 1.0 | nH (GluN1–1a/2B; [9]): 1.1 | nH (GluN1–1a/2B; [10]): 1.0

Cc1ncc(CNC(=O)c2cnc(CNS(=O)(=O)c3ccc(F)c(Cl)c3)cn2)s1 [MPX-004]
NMDAR-EPSC peak amplitude, % of baseline [1]: 98 ± 5 % of baseline | NMDAR-EPSC peak amplitude, % of baseline [2]: 45 ± 2 % of baseline | effect on EPSC decay time [2]: significantly slowed
